From paper PMC9503009, “Determining Ligand and Ion-Induced Conformational Changes in Serotonin Transporter with Its Fluorescent Substrates” (International Journal of Molecular Sciences, 2022)
Where two headings read alike, the source gives them in different places.

Assays:
Assay type in all cases: cell-based
SERT S404C/C109A [1] = target: T1, SERT S404C/C109A (Rattus norvegicus, UniProt P31652, C109A/S404C); test: MTSET inhibition of APP+ uptake in live cells (extracellular pathway cysteine accessibility)
T1 construct: expressed in transfected cells
Protocol: (§1) Figure 3 Reactivity of the extracellular cysteine mutants with MTSET. (A) MTSET concentration-dependent inhibition of APP^+ uptake. The cells stably expressing C109A, Y107C/C109C, or S404C/C109A were incubated for 15 min with indicated concentrations of MTSET. The MTSET concentration giving half-maximal inhibition of APP^+ accumulation in the cells was used to calculate inactivation rate constants as plotted in (B). […] Representative images of APP^+ uptake by C109A, Y107C/C109A, or S404C/C109A under various MTSET concentrations were shown in Supplemental Figure S1. […] (B) Rate constants of MTSET inhibition of APP^+ uptake. At the half-maximal concentration, the half-time is the assay time (15 min) and the first-order rate constant is 7.7 × 10^−4 s^−1. This rate constant was divided by the half maximal MTSET concentration from (A) to obtain the pseudo first-order modification rate constant. Error bars represent SEM of three experiments.
(§2) The cells stably expressing Y107C/C109A or S404C/C109A were preincubated with indicated ligands and MTSET at a concentration of 0.01 mM for Y107C/C109A or 0.002 mM for S404C/C109A at 22 °C for 15 min, respectively. At the end of this incubation, cells were washed free of MTSET and ligands into KRH buffer containing NaCl and APP^+. APP^+ uptake was measured as described under “Materials and Methods”. Error bars represent SEM from three experiments. Asterisks and hashtags indicate statistically significant changes (p < 0.05) in the accumulated APP^+ fluorescence compared with the corresponding control (MTSET alone).
Accessibility of the cysteine residues in the extracellular pathway was measured by reactivity of Y107C/C109A and S404C/C109A mutants with MTSET. The cells stably expressing Y107C/C109A or S404C/C109A were incubated with MTSET over a range of concentrations in HEPES buffer containing indicated ligands or ions at 22 °C for 15 min. After excess MTSET and ligands were removed by rapid 3 × washing with the same buffer, the cells were then incubated with APP^+ at a final concentration of 2 μM in KRH buffer at 22 °C for another 5 min. The extent of APP^+ accumulated in the cells was determined by confocal imaging analysis in the live cells. To measure the effects of antidepressants, substrate 5-HT, or other ligands such as 5-HTP or tryptophan, where added, was present at 10 μM. To measure the effects of ions, 150 mM […] (NMDG) gluconate, and NMDG chloride, sodium isethionate, or NaCl was used as indicated. These measurements of reactivity depend on the ability of MTSET to inactivate APP^+ transport activity by an allosteric mechanism. The MTSET concentration causing half-maximal inactivation was determined and used to calculate the rate constant for cysteine modification, as described previously.

SERT S277C/X5C [2] = target: T2, SERT S277C/X5C (Rattus norvegicus, UniProt P31652, C109A/C15A/C21A/C357I/C622A/S277C); test: MTS reagent inhibition of ASP+ binding in digitonin-permeabilized cells (cytoplasmic pathway cysteine accessibility)
T2 construct: expressed in transfected cells
Protocol: After 3 × rapid washing with KRH buffer, APP^+ or ASP^+ accumulation was measured as described under “Materials and Methods”. […] These representative images were parallelly acquired from one experiment. […] After 3 × washing, ASP^+ binding to the cell membrane was measured as described under “Materials and Methods”. […] (D) The effects of MTSET on ASP^+ binding of S277C/X5C and X5C. […] After 3 × rapid washing, ASP^+ binding was measured as described under “Materials and Methods”.
After washing to remove excess MTSEA and ligands, ASP^+ binding was measured as described under “Materials and Methods”. […] The IC50 values of MTSEA inhibition of ASP^+ binding were converted to rate constants.
The cells stably expressing Y107C/C109A were treated at 22 °C for 15 min with indicated concentrations of MTSET in the absence or presence of 10 μM vilazodone. After washing to remove excess MTSET and vilazodone, APP^+ uptake was measured as described under “Materials and Methods”. […] The IC50 values of MTSET inhibition were used to calculate rate constants as described under “Materials and Method”. Error bars represent SEM from three experiments. […] After washing to remove excess MTSEA and vilazodone, ASP^+ binding was measured as described under “Materials and Methods”. […] The IC50 values of MTSEA inhibition of ASP^+ binding were converted to rate constants. […]
For cytoplasmic pathway accessibility, measurements were performed with the cells stably expressing S277C/X5C. […] The cells, then, were washed free of unreacted MTSEA and ligands, ASP^+ binding was measured by adding 500 μL KRH buffer containing 10 μM ASP^+ and incubating at 22 °C for 5 min. Excess ASP^+ was removed by 3 × rapid washing with KRH buffer and ASP^+ fluorescence retained in the cell membrane was measured by confocal imaging analysis in the permeabilized cells. […] The MTSEA IC50 value was determined and used to calculate the rate constant for S277C/X5C modification.

SERT Y107C/C109A [3] = target: T3, SERT Y107C/C109A (Rattus norvegicus, UniProt P31652, C109A/Y107C); test: MTSET inhibition of APP+ uptake in live cells (extracellular pathway cysteine accessibility)
T3 construct: expressed in transfected cells
Protocol: as §1
(A) MTSET concentration-dependent inhibition of APP^+ uptake. […] After washing to remove excess MTSET and ligands, APP^+ uptake was measured as described under “Materials and Methods”. […] (B) Rate constants of MTSET inhibition of APP^+ uptake. The IC50 values of MTSET inhibition were used to calculate rate constants as described under “Materials and Methods”. Error bars represent SEM from three experiments.
as §2
The cells stably expressing Y107C/C109A were treated at 22 °C for 15 min with indicated concentrations of MTSET in the absence or presence of 10 μM vilazodone. After washing to remove excess MTSET and vilazodone, APP^+ uptake was measured as described under “Materials and Methods”. […] The IC50 values of MTSET inhibition were used to calculate rate constants as described under “Materials and Method”. Error bars represent SEM from three experiments. […] After washing to remove excess MTSEA and vilazodone, ASP^+ binding was measured as described under “Materials and Methods”. […] The IC50 values of MTSEA inhibition of ASP^+ binding were converted to rate constants.

SERT Y107C/C109A [4] = target: T3, SERT Y107C/C109A; test: Kinetic analysis of APP+ or ASP+ uptake by fluorescence imaging in stably expressing cells; conditions: 22 °C, 5 min
SERT S404C/C109A [5] = target: T1, SERT S404C/C109A; test: as above; conditions: for Km / Vmax: uptake by cells stably expressing S404C/C109A, 22 °C, 5 min
WT-SERT = target: T4, WT-SERT (Rattus norvegicus, UniProt P31652); test: as above; conditions: 22 °C, 5 min, mean ± SEM of three experiments
T4 construct: expressed in transfected cells
Protocol: Figure 1 Kinetic analysis and ion requirements for APP^+ or ASP^+ uptake by SERT. (A) Kinetic analysis for APP^+ or ASP^+ uptake by SERT. […] After washing to remove excess APP^+ or ASP^+, the accumulated fluorescence within the cells (n ≥ 30) were counted and normalized to the cell areas, as described under “Materials and Methods”. […] (B) Ion-dependence of APP^+ or ASP^+ uptake. APP^+ or ASP^+ uptake was measured by incubating the cells stably expressing WT- SERT with APP^+ at 2 μM or ASP^+ at 10 μM in HEPES buffer containing 150 mM NMDGCl, sodium isethionate, or NaCl, respectively. Error bars represent SEM of three experiments.
The cells stably expressing SERT-WT or mutants were wet mounted on polylysine-coated glass slides and applied for indicated treatments. In brief, the cells were washed twice with 500 μL KRH buffer containing 20 mM HEPES, pH 7.4, 120 mM NaCl, 1.3 mM KCl, 2.2 mM CaCl2, 1.2 mM MgSO4, and 0.1% (w/v) glucose. APP^+ or ASP^+ accumulation was measured by adding 500 μL KRH buffer containing 2 μM APP^+ or 10 μM ASP^+ and incubating for 5 min at 22 °C. Excess APP^+ or ASP^+ was then removed by rapid washing three times with 500 μL KRH buffer. The extent of APP^+ or ASP^+ accumulated in the cells was determined with confocal imaging analysis.
Images were acquired at 22 °C using a 20 or 60 × water immersion objective with the Zeiss LSM 900 confocal microscope. APP^+ and ASP^+ were excited by an argon laser with excitation peak at 488 nm. APP^+ fluorescence was captured at 490–565 nm and ASP^+ fluorescence at 600–650 nm. Images were analyzed using National Institutes of Health ImageJ v1.53q. Fluorescence intensity in each cell was counted and normalized to the cell area (mean fluorescence). To obtain ASP^+ binding on the cell surface, intracellular ASP^+ fluorescence intensity was subtracted from total fluorescence in each cell, and the resulting ASP^+ fluorescence on the cell surface was then normalized to the cell membrane area.

SERT S277C/X5C [6] = target: T2, SERT S277C/X5C; test: as above; conditions: for Km / Vmax: uptake by cells stably expressing S277C/X5C, 22 °C, 5 min
[7] = S404C/C109A, MTSET 0.002 mM, ligand 10 μM, 22 °C, 15 min
[8] = Y107C/C109A, MTSET 0.01 mM, ligand 10 μM, 22 °C, 15 min

Q: How did the “effect of ligand on reactivity with MTSET” value (“effect of ligand” below) (SERT S404C/C109A [1]; [7]) turn out when `NCCc1c[nH]c2ccc(O)cc12` [5-HT, 5-hydroxytrypatamine] was run?
A: significantly decreased the reactivity

Q: And the “increase of rate constant of MTSEA modification compared with control” value (SERT S277C/X5C [2]; S277C/X5C, 10 μM ligand in the presence of NaCl, 25 μg/mL digitonin)?
A: ~ 2 folds

Q: What about the “decrease of MTSET rate constant compared with control” value (SERT Y107C/C109A [3]; Y107C/C109A, 10 μM ligand with Na+ and Cl−, control MTSET alone) of the same compound?
A: ~2 folds

Q: What about the “effect of ligand” value (SERT Y107C/C109A [3]; [8]) of the same compound?
A: significantly decreased the reactivity

Q: Which “effect of ligand” value (SERT S404C/C109A [1]) does the source give for `N[C@@H](Cc1c[nH]c2ccc(O)cc12)C(=O)O` [5-HTP, 5-hydroxytryptophan] here?
A: little effect on the reactivity

Q: And the “effect of ligand” value (SERT Y107C/C109A [3])?
A: little effect on the reactivity

Q: Which Km (SERT Y107C/C109A [4]) does the source give for `CN(C)c1ccc(-c2cc[n+](C)cc2)cc1` [APP^+, 4-[4-(dimethylamino)phenyl]-1-methylpyridinium] here?
A: 2.39 ± 0.04 µM

Q: And the Vmax (SERT Y107C/C109A [4])?
A: 39.4 ± 1.8 AFU

Q: What about the Km (SERT S404C/C109A [5]) of the same compound?
A: 2.07 ± 0.04 µM

Q: And the Vmax (SERT S404C/C109A [5])?
A: 34.9 ± 1.2 AFU

Q: What about the Km (WT-SERT) of the same compound?
A: 2.63 ± 0.06 µM

Q: What about the Vmax (WT-SERT) of the same compound?
A: 30.5 ± 1.4 AFU

Q: And the Km (SERT S277C/X5C [6])?
A: 1.99 ± 0.05 µM

Q: And the Vmax (SERT S277C/X5C [6])?
A: 26.5 ± 1.1 AFU

Q: How did the Km (SERT Y107C/C109A [4]) turn out when `CN(C)c1ccc(C=Cc2cc[n+](C)cc2)cc1` [ASP^+, 4-(4-(dimethylamino)styryl)-N-methylpyridinium] was run?
A: 9.32 ± 0.48 µM

Q: And the Vmax (SERT Y107C/C109A [4])?
A: 59.9 ± 4.2 AFU

Q: What about the “Vmax value relative to the WT” value (SERT S404C/C109A [5]; S404C/C109A, ASP+ as substrate) of the same compound?
A: ~70%

Q: What about the Km (SERT S404C/C109A [5]) of the same compound?
A: 8.87 ± 0.59 µM

Q: What about the Vmax (SERT S404C/C109A [5]) of the same compound?
A: 53.2 ± 3.8 AFU

Q: What about the Km (WT-SERT) of the same compound?
A: 8.52 ± 0.15 µM

Q: And the Vmax (WT-SERT)?
A: 75.8 ± 5.3 AFU

Q: What about the “Vmax value relative to the WT” value (SERT S277C/X5C [6]; S277C/X5C, ASP+ as substrate) of the same compound?
A: ~50%

Q: What about the Km (SERT S277C/X5C [6]) of the same compound?
A: 9.66 ± 0.94 µM

Q: What about the Vmax (SERT S277C/X5C [6]) of the same compound?
A: 40.2 ± 3.0 AFU

Q: How did the “effect of ligand” value (SERT S404C/C109A [1]) turn out when `N[C@@H](Cc1c[nH]c2ccccc12)C(=O)O` [Trp, tryptophan] was run?
A: little effect on the reactivity

Q: And the “effect of ligand” value (SERT Y107C/C109A [3])?
A: little effect on the reactivity

Q: With `CN(C)CCCN1c2ccccc2CCc2ccccc21` [imipramine] as the compound, how does the “effect of ligand” value (SERT S404C/C109A [1]; [7]) read?
A: markedly increased the reactivity

Q: What about the “effect of ligand” value (SERT Y107C/C109A [3]; [8]) of the same compound?
A: markedly increased the reactivity

Q: With `N#Cc1ccc2[nH]cc(CCCCN3CCN(c4ccc5oc(C(N)=O)cc5c4)CC3)c2c1` [vilazodone] as the compound, how does the “effect on Cys277 reactivity with MTSEA” value (SERT S277C/X5C [2]; digitonin-permeabilized cells expressing S277C/X5C, 10 μM vilazodone) read?
A: decreased Cys277 reactivity

Q: And the “effect on Cys107 reactivity with MTSET” value (SERT Y107C/C109A [3]; intact cells expressing Y107C/C109A, 10 μM vilazodone)?
A: increased Cys107 reactivity
